Patent US11236055B2 (Venenum Biodesign, LLC, priority 2016, dated 2022)

Tests used:
Mouse STC-1 cells = test: STC-1 GLP-1 assay; assay type: cell-based; conditions: GLP-1 secretion, 2 h, coded A-C, read-out: Mouse STC-1 HTRF GLP-1 Activity (EC50)
Description: We evaluated Compounds of the present invention for their ability to induce GLP-1 production in mouse intestinal neuroendocrine tumor cells. Mouse STC-1 cells were cultured and maintained in high glucose DMEM (Sigma #5796) supplemented with 15% horse serum, 5% Fetal Bovine Serum (FBS), 1% penicillin/streptomycin, and 2 mM L-alanine L-glutamine (GlutaMax). Two days prior to analysis of GLP-1 secretion cells were harvested using Accutase (Sigma), spun down then resuspended in high glucose DMEM media containing 2 mM L-alanine L-glutamine (GlutaMax), 10% charcoal-dextran stripped FBS, and 50 μg/mL Gentamicin, at a density of 100,000 cells/mL. 100 μL of cell suspension was added to each well of a 96-well Poly-D-Lysine coated culture plate (Sigma; cat #2382493) and was incubated at 37° C. with 5% CO2.
Compounds were initially diluted in 100% DMSO (12-point serial dilution by half logs) in a 96-well plate and then were further diluted 1:500 in Hanks' Balanced Salt Solution (HBSS) containing protease inhibitor cocktail, DPP-IV inhibitor, and 0.1% fatty acid free bovine serum albumin. On the day of the experiment cells were washed once with HBSS. After wash, 100 μL of test compound was added to each well. The plate was incubated at 37° C. with 5% CO2 for 2 h. Supernatants were collected and GLP-1 secretion was measured using the Cisbio™ Active GLP-1 HTRF Assay Kit (Cisbio). Briefly, Anti-GLP-1-d2 conjugate and Anti-GLP-1 Terbium Cryptate conjugate stock solutions were prepared as per kit instructions. The two solutions were pre-mixed and 10 μL were transferred to a 384-well low volume plate (Greiner; cat #784075). 10 μL of collected supernatants were added to wells already containing the conjugate solution. The plate was covered and incubated at room temperature overnight. The plate was read on an Envision™ plate reader (Perkin Elmer).
In Table 34, EC50 values obtained from the STC-1 GLP-1 production assay for compounds of the present invention are summarized.

[1] = Pharmacokinetic profile in mice; assay type: in vivo; conditions: mouse; fasted male Hilltop mice, 10 mg/kg oral gavage, plasma, mean of three mice
Description: Pharmacokinetic Profile in Mice
In this series of studies, the pharmacokinetic profile characteristics of compounds of the present invention were evaluated. The plasma concentration levels of the compounds were monitored in the blood stream (i.e., plasma) after oral gavage using Cmax, and area under the curve (AUC).
8 week old male Hilltop mice were fasted overnight. Animals were randomized into groups (n=9) by body weight. Mice were dosed with 10 mg/kg compound (in 20% PEG400/80% 0.5% carboxymethylcellulose (medium viscosity)+0.25% Tween-80) at a volume of 10 mL/kg through oral gavage. Blood was collected via orbital bleeding at 0, 0.25, 0.5, 1, 2, and 4 h post-dose, with no one mouse having more than 3 blood draws. Blood was collected in EDTA coated tubes. Samples were stored at −20° C. until analysis.
Quantitation of compound levels in plasma was accomplished by LC-MS/MS analysis. Standard curve and quality control samples were prepared in male CD-1 mouse plasma containing EDTA K^2+ as an anticoagulant at final concentrations ranging from 500 to 0.1 ng/mL. The plasma samples, calibration curve standards, and quality control samples were prepared in an identical method in a 96-well deep plate (1 mL) with a quenching solution (1:1 mixed acetonitrile:methanol containing the internal standard Reserpine @ 400 ng/mL). Low volume samples were supplemented with CD-1 mouse plasma. The plate was mixed on multi-tube votex for 1 min and centrifuged at 4000 rpm for 30 min at 4° C. (Sorvall® Super T21) before LC-MS/MS analysis. LC conditions were developed and optimized based on each compound as needed. The outlet of the column was coupled to AB Sciex 4000 QTrap Mass Spectrometer (AB Sciex, Brugg Switzerland). Detection was carried out using multiple reaction monitoring mode with positive-ion detection focusing. The pharmacokinetic parameters were derived from the plasma-time data and calculated using the standard non-compartmental method with WinNonlin (Pharsight, Mountain View, Calif.) or PK Solver (Comp. Meth. Prog. Biomed. (2010), 99, 306-314).
Values reported are the mean plasma concentration of three mice.

| Compound | EC50 (Mouse STC-1 cells) [nM] | Cmax [1] [ng/mL] |
| --- | --- | --- |
| CCc1cnccc1-c1cccc(C2CN(C(=O)CCC(=O)O)CCN2S(=O)(=O)c2cccc(Cl)c2C)c1 (racemic) [Compound 46, (+/−) 4-(4-((3-Chloro-2-methylphenyl)sulfonyl)-3-(3-(3-ethylpyridin-4-yl)phenyl)piperazin-1-yl)-4-oxobutanoic acid] | 100 to 999 | 436 |
| CCc1cnccc1-c1cccc(C(C)(C)NS(=O)(=O)c2ccccc2C(F)(F)F)c1 [Compound 5, N-(2-(3-(3-ethylpyridin-4-yl)phenyl)propan-2-yl)-2-(trifluoromethyl)benzenesulfonamide] | 100 to 999 | 3.1 |
| Cc1cnccc1-c1cccc(C(C)(C)NS(=O)(=O)c2cccc(C(F)(F)F)c2)c1 [Compound 5AA, N-(2-(3-(3-methylpyridin-4-yl)phenyl)propan-2-yl)-3-(trifluoromethyl)benzenesulfonamide] | 100 to 999 | 128 |
| Cc1cnccc1-c1cccc(C(C)(C)N(CCCC(=O)O)S(=O)(=O)c2ccccc2C(F)(F)F)c1 [Compound 14, 4-(N-(2-(3-(3-methylpyridin-4-yl)phenyl)propan-2-yl)-2-(trifluoromethyl)phenylsulfonamido)butanoic acid] | 100 to 999 | 1080 |
| Cc1cnccc1-c1cccc(C(C)(C)N(CCCC(=O)NCS(=O)(=O)O)S(=O)(=O)c2ccccc2C(F)(F)F)c1 [Compound 20AB] | 100 to 999 | 1.5 |
| Cc1cnccc1-c1cccc([C@H](C)N(CCCCC(=O)NCCS(=O)(=O)O)S(=O)(=O)c2cccc(Cl)c2C)c1 [Compound 20AH, (S)-2-(5-(3-chloro-2-methyl-N-(1-(3-(3-methylpyridin-4-yl)phenyl)ethyl)phenylsulfonamido)pentanamido)ethanesulfonic acid] | 1000 to 30000 | 0.9 |
| CCc1cnccc1-c1cccc([C@H](C)N(CCCC(=O)NC[C@@H](O)[C@H](O)[C@@H](O)[C@@H](O)CO)S(=O)(=O)c2cccc(Cl)c2C)c1 [Compound 20AN, 4-(3-chloro-N-((S)-1-(3-(3-ethylpyridin-4-yl)phenyl)ethyl)-2-methylphenylsulfonamido)-N-((2R,3S,4S,5S)-2,3,4,5,6-pentahydroxyhexyl)butanamide] | 100 to 999 | 1.7 |
| CCc1cnccc1-c1cccc([C@H](C)N(CCCC(=O)NCCS(=O)(=O)O)S(=O)(=O)c2ccccc2C)c1 [Compound 20AR, (S)-2-(4-(N-(1-(3-(3-ethylpyridin-4-yl)phenyl)ethyl)-2-methylphenyl-sulfonamido)butanamido)ethane sulfonic acid] | 100 to 999 | 3.2 |
| Cc1cnccc1-c1cccc([C@H](C)N(CCCCC(=O)NCCS(=O)(=O)NCCC(=O)O)S(=O)(=O)c2ccccc2C(F)(F)F)c1 [Compound 20BM] | 1000 to 30000 | 0.6 |
| CCc1cnccc1-c1cccc([C@H](C)N(CCCC(=O)NCCS(=O)(=O)NCC(=O)O)S(=O)(=O)c2ccccc2C)c1 [Compound 20BU, (S)-2-(4-(2-methyl-N-(1-(3-(3-ethylpyridin-4-yl)phenyl)ethyl)phenylsulfonamido)butanamidoethylsulfonamido)acetate] | 100 to 999 | 1.1 |
| Cc1cnccc1-c1cccc([C@H](C)N(CCCC(=O)NCCS(=O)(=O)NCCC(=O)O)S(=O)(=O)c2cccc(Cl)c2C)c1 [Compound 21AL] | 100 to 999 | 7.6 |
| Cc1cnccc1-c1cccc([C@H](C)N(CCCC(=O)NCCS(=O)(=O)NCC(=O)O)S(=O)(=O)c2cccc(Cl)c2C)c1 [Compound 21AN, (S) 2-(3-(4-(3-chloro-2-methyl-N-(1-(3-(3-methylpyridin-4-yl)phenyl)ethyl)phenylsulfonamido)butanamido)ethylsulfonamido)acetic acid] | 100 to 999 | 1.9 |
| Cc1cnccc1-c1cccc([C@H](C)N(CCCC(=O)NCCNS(=O)(=O)CC(=O)O)S(=O)(=O)c2cccc(Cl)c2C)c1 [Compound 26AA] | 100 to 999 | 1.4 |
| Cc1cnccc1-c1cccc([C@H](C)N(CCCC(=O)NCCNS(=O)(=O)CCC(=O)O)S(=O)(=O)c2cccc(Cl)c2C)c1 [Compound 26AB] | 100 to 999 | 2.6 |
| Cc1cnccc1-c1cccc([C@H](C)N(CCCCNC(=O)NCCS(=O)(=O)NCC(=O)O)S(=O)(=O)c2ccccc2C(F)(F)F)c1 [Compound 28AA, (S)-2-(3-(4-(N-(1-(3-(3-methylpyridin-4-yl)phenyl)ethyl)-2-(trifluoromethyl)phenylsulfonamido)butyl)ureido)ethanesulfonamido acetic acid] | 100 to 999 | 0.7 |
| Cc1cnccc1-c1cccc([C@H](C)N(CCCCNC(=O)NCS(=O)(=O)O)S(=O)(=O)c2ccccc2C(F)(F)F)c1 [Compound 28AC, (S)-(3-(4-(N-(1-(3-(3-methylpyridin-4-yl)phenyl)ethyl)-2-(trifluoromethyl)phenylsulfonamido)butyl)ureido)methanesulfonic acid] | 1000 to 30000 | 0.8 |
| CCc1cnccc1-c1cccc([C@H](C)N(CCCCNC(=O)NCS(=O)(=O)O)S(=O)(=O)c2ccccc2C(F)(F)F)c1 [Compound 28AH, (S)-(3-(4-(N-(1-(3-(3-ethylpyridin-4-yl)phenyl)ethyl)-2-(trifluoromethyl)phenylsulfonamido)butyl)ureido)methanesulfonic acid] | 100 to 999 | 4.6 |
| Cc1cnccc1-c1cccc(C(C)(C)N(CCCNC(=O)NCS(=O)(=O)O)S(=O)(=O)c2cccc(Cl)c2C)c1 [Compound 29, (3-(3-((3-Chloro-2-methyl-N-(2-(3-(3-methylpyridin-4-yl)phenyl)propan-2-yl)phenyl)sulfonamide)propyl)ureido) methanesulfonic acid] | 100 to 999 | 2.5 |
| Cc1cnccc1-c1cccc(C(C)(C)N(CCCNC(=O)NCCS(=O)(=O)O)S(=O)(=O)c2cccc(Cl)c2C)c1 [Compound 29AA, 2-(3-(3-((3-Chloro-2-methyl-N-(2-(3-(3-methylpyridin-4-yl)phenyl)propan-2-yl)phenyl)sulfonamide)propyl)ureido)ethane-1-sulfonic acid] | 100 to 999 | 1.5 |
| Cc1cnccc1-c1cccc([C@H](C)N(CCCCNC(=O)CS(=O)(=O)O)S(=O)(=O)c2ccccc2C(F)(F)F)c1 [Compound 31AA, (S)-2-((4-(N-(1-(3-(3-methylpyridin-4-yl)phenyl)ethyl)-2-(trifluoromethyl)phenylsulfonamido)butyl)amino)-2-oxoethanesulfonic acid] | 100 to 999 | 4.4 |
| Cc1cnccc1-c1cccc([C@H](C)N(CCCCNC(=O)[C@@H](N)CS(=O)(=O)O)S(=O)(=O)c2ccccc2C(F)(F)F)c1 [Compound 31AC, (R)-2-amino-3-((4-(N-((S)-1-(3-(3-methylpyridin-4-yl)phenyl)ethyl)-2-(trifluoromethyl)phenylsulfonamido)butyl)amino)-3-oxopropane-1-sulfonic acid] | 100 to 999 | 1.8 |
| CCc1cnccc1-c1cccc([C@H](C)N(CCCC(=O)NCCNS(N)(=O)=O)S(=O)(=O)c2cccc(Cl)c2C)c1 [Compound 37AA, (S)-4-(3-chloro-N-(1-(3-(3-ethylpyridin-4-yl)phenyl)ethyl)-2-methylphenylsulfonamido)-N-(2-(sulfamoylamino)ethyl)butanamide] | 100 to 999 | 39.4 |
| Cc1cnccc1-c1cccc([C@H](C)N(CCCC(=O)NCCNS(=O)(=O)NCC(=O)O)S(=O)(=O)c2cccc(Cl)c2C)c1 [Compound 38] | 100 to 999 | 3.6 |
